Data on 6 compounds can be found in patent publication US6378981B1, “Surfactant for inkjet service station wiper fluid” (Hewlett-Packard Company, priority 2000, dated 2002).

Series [1] is described as follows: Separation of surfactant from PEG400, observed for seven days. The settings on record: 1 wt. % solution in PEG400, 50 ml tubes, observed daily for seven days. Type of series: physicochemical. On the procedure:
1 wt. % solutions of C8AO (Hexyl dimethyl amine oxide), C10AO (NN dimethyl octyl amine oxide), C14AO (NN Dimethyl dodecyl amine oxide), […] and C18AO (NN Dimethyl-N-oxide hexadecane amine) with PEG400 were prepared and placed in 50 ml tubes. The tubes were observed daily for seven days. No separation of surfactant from PEG400 was observed.

The procedure of series [2]: Non-ionic surfactants (Tergitol 15-S-5, Surfynol465), an amphoteric surfactant (Mackam OCT-50), an anionic surfactant (Dodecylbenzene sulfonate Na) and a cationic surfactant (Cetyl trimethyl ammonium bromide) were tested for solubility in an inkjet test ink having the following formulation.
The pass/fail criteria were the absence or presence of insoluble material on the bottom on the container after three days at room temperature.

Series [3] in a line: Wetting effectiveness of surfactants on orifice (nozzle) plate. On the set-up: key: Good: Wetting is considered “good” when a very thick layer of ink spreads out evenly on the orifice plate. Format: physicochemical. On the procedure: To determine an effective surfactant concentration range in a servicing fluid, the following procedure was used. A think uniform coat of test servicing fluid was applied to the nozzle plate. 0.5 μl of drop test ink was then applied to the coated nozzle plate and the maximum dot diameter was then measured.
Wetting is considered “good” when a very thick layer of ink spreads out evenly on the orifice plate.

For the compound `CCCCCCCCCCCC[N+](C)(C)[O-]` [C14AO, NN Dimethyl dodecyl amine oxide], the “Separation of surfactant from PEG400” value in series [1] was “No separation”.

For the compound `CCCCCCCCCCCCCCCC[N+](C)(C)C.[Br-]` [Cetyl trimethyl ammonium bromide], the Compatibility entry in series [2] was “Fail”.

Take `CCCCCCCC[N+](C)(C)[O-]` [Dimethyl Octylamine oxide]: the Wetting result in series [3] (0.01 wt. % surfactant in PEG 300 servicing fluid) is reported as “Good”; in series [3] (0.1 wt. % surfactant in PEG 300 servicing fluid), “Good”; in series [3] (1.0 wt. % surfactant in PEG 300 servicing fluid), “Poor”; in series [3] (2.0 wt. % surfactant in PEG 300 servicing fluid), “Poor”; in series [3] (3.0 wt. % surfactant in PEG 300 servicing fluid), “Poor”; in series [3] (4.0 wt. % surfactant in PEG 300 servicing fluid), “Poor”. Besides, the “Separation of surfactant from PEG400” value in series [1] is listed as “No separation”.

On to `CCCCCC[N+](C)(C)[O-]` [Hexyl dimethyl amine oxide], for which the Compatibility result in series [2] is on record as “Pass”. Besides, in series [1], the “Separation of surfactant from PEG400” value was “No separation”.

`CCCCCCCCCCCCCC[N+](C)(C)[O-]` [Myristyl dimethyl amine oxide]: the “Separation of surfactant from PEG400” value in series [1] is on record as “No separation”.

As to `CCCCCCCCCCCCCCCC[N+](C)(C)[O-]` [NN Dimethyl-N-oxide hexadecane amine], the “Separation of surfactant from PEG400” value in series [1] is recorded as “No separation”.
